# Experiments:
# [1] = system: viruses isolated from quantitative viral outgrowth assay (QVOA) supernatants; assay: Infected-cell binding with viruses isolated from QVOA supernatants; design: species or system HIV
# Excerpt: (§1) We developed a method to perform paired testing of neutralization and infected-cell binding (predictive of ADCC^6) and applied this to 36 viruses that we isolated from quantitative viral outgrowth assay (QVOA) supernatants, using a panel of 14 clinically relevant bnAbs.
# [2] = system: viruses isolated from quantitative viral outgrowth assay (QVOA) supernatants; assay: Neutralization of viruses isolated from QVOA supernatants; type: cell-based, HIV
# Excerpt: as §1
# [3] = system: HIV-infected CD4+ T-cells; assay: Binding of secreted 10-1074 bnAb to HIV-infected CD4+ T-cells (flow cytometry); details: virus from latent reservoir of participant OM5334, high MOI (~70% Gag+)
# Excerpt: Binding of secreted 10-1074 bnAb to HIV-Infected CD4^+ T-cells. […] These cells were then stained with a fluorochrome-conjugated anti-human-IgG1 antibody, and analyzed by flow cytometry. […] We therefore performed an additional experiment using a lower multiplicity of infection (MOI) of the HIV molecular clone SF162. […] However, it has been well-established that Ab-binding to infected cells is predictive of ADCC^6.
# pseudovirus = assay: Standard pseudovirus neutralization assay; type: cell-based, HIV
# Method: Virus neutralization by secreted 10-1074. We also tested whether the supernatants secreted from TbnAb are capable of neutralizing HIV by using a standard pseudovirus assay. Briefly, supernatants obtained from TbnAbs were diluted five fold and incubated with pseudovirus. Target cells were then added, and a single-round of infection was allowed to proceed for 48 h^1. In certain lines, we observed 20-30% neutralization of virus at this single concentration (data not shown). […] (data not shown). […] Thus, the data support that the 10-1074 in these supernatants is functionally equivalent to purified 10-1074 on a per concentration basis.
# HIV SF162 = assay: Viral inhibition assay (p24); type: cell-based; details: antibody alone, absence of NK cells, n=2 replicates
# HIV = details: in a subset of the population; cited from earlier work
# [4] = system: HIV envelope expressing HeLa cells; assay: HIV binding: HIV envelope expressing HeLa cells (flow cytometry); details: supernatant of transduced cells
# Method: HIV envelope expressing HeLa cells were obtained from NIH AIDS Reagent Program (69T1 RevEnv Cells, #3336). HeLa Envelope cells were fixed with 4.2% paraformaldehyde (BD, #554655) for 20 minutes at 4° C. Cells were washed in chilled Facs Buffer (PBS+2% FBS) and incubated in supernatant containing secreted antibody from transduced Jurkat T cells or non-specific antibodies from nontransduced Jurkat T cells for 1 hour at room temperature. Cells were washed an additional two times in Facs Buffer and incubated with goat anti-human IgG (H+L) FITC (Life Technologies, #H10301) for 30 minutes at room temperature.
# To test whether the T cell secreted antibodies maintain their ability to recognize HIV envelope, we used HeLa cells expressing Env obtained from the AIDS reagent program.
# non-expressing cells = assay: HIV binding: non-expressing cells (flow cytometry); details: supernatant of transduced cells
# [5] = biological target: HIV envelope (Env) expressed on HeLa cells (69T1 RevEnv Cells) (HIV); assay: cell-based or functional assay
# [6] = biological target: 36 viruses isolated from quantitative viral outgrowth assay (QVOA) supernatants; assay: cell-based or functional assay
molecule,measurement,setting,value
10-1074: Monoclonal antibody 10-1074 targets the V3 glycan supersite on the HIV-1 envelope (Env) protein; broadly neutralizing,binding characteristics (breadth and potency),"[1]; 36 viruses, panel of 14 bnAbs",superior binding characteristics
same,infected cell binding,[1]; OM5162 virus isolate #3,lack of 10-1074 binding
same,infected cell binding,[1]; patient OM5162 virus isolate #1,binding
same,viruses potently neutralized,[2]; 36 viruses isolated from QVOA supernatants,24/36
same,median IC50 against reservoir viruses,[2]; reservoir viruses,0.3 µg/mL
same,binding to HIV-infected CD4+ T cells,[3],efficient binding
same,concentration giving 20-30% neutralization,pseudovirus; purified antibody curves,0.01 to 0.1 µg/mL
same,HIV p24 (viral inhibition),HIV SF162; FIG. 10A,6892.442±168.555
same,HIV p24 (viral inhibition),HIV SF162; FIG. 10B,757.911±163.351
same,HIV p24 (viral inhibition),HIV SF162; FIG. 10C,22914.671±2305.507
same,HIV RNA levels,HIV,transiently decrease HIV RNA levels
TbnAb secreted 10-1074: 10-1074 antibody secreted into supernatants by transduced T cells,binding to HIV-infected CD4+ T cells,[3],specific binding
same,binding to HIV-infected CD4+ T cells,[3]; listed as antibody secreted by HIV specific TbnAb cell lines,specifically binds
same,neutralization of virus,"pseudovirus; supernatants diluted five fold (0.03 ug/ml of 10-1074), single-round infection 48 h, certain lines",20-30%
same,binding to envelope-expressing cells,[4],bind
same,binding to non-expressing cells,non-expressing cells,not
"T cell-secreted 10-1074 antibody from the 10-1074 Ab construct (IgG3 constant region) (antibody, V domains shown) VH: QVQLQESGPGLVKPSETLSVTCSVSGDSMNNYYWTWIRQSPGKGLEWIGYISDRESATYNPSLNSRVVISRDTSKNQLSLKLNSVTPADTAVYYCATARRGQRIYGVVSFGEFFYYYSMDVWGKGTTVTVSS VL: SYVRPLSVALGETARISCGRQALGSRAVQWYQHRPGQAPILLIYNNQDRPSGIPERFSGTPDINFGTRATLTISGVEAGDEADYYCHMWDSRSGFSWSFGGATRLTVLV","NK cell killing (ADCC; europium cytotoxicity assay, primary NK cells)",[5],34.5
same,increase in killing from ADCC,[5],10.5%
"10-1074 antibody (purified) (antibody, V domains shown) VH: QVQLQESGPGLVKPSETLSVTCSVSGDSMNNYYWTWIRQSPGKGLEWIGYISDRESATYNPSLNSRVVISRDTSKNQLSLKLNSVTPADTAVYYCATARRGQRIYGVVSFGEFFYYYSMDVWGKGTTVTVSS VL: SYVRPLSVALGETARISCGRQALGSRAVQWYQHRPGQAPILLIYNNQDRPSGIPERFSGTPDINFGTRATLTISGVEAGDEADYYCHMWDSRSGFSWSFGGATRLTVL",median IC50 (neutralization),[6],0.3 µg/mL

# From patent US20220048988A1, “CELLS EXPRESSING ANTIBODIES TARGETING HUMAN IMMUNODEFICIENCY VIRUS AND METHODS OF USING THE SAME” (priority 2018, published 2022)
